System: CD8^+ T-cells in MMTV-PyMT tumors
Experiment: Flow cytometry of the TME of MMTV-PyMT tumors after 36 h treatment
Assay type: in vivo, mouse
Settings: single-agent therapy
Procedure: At 36 h post treatment initiation of treatment mice were sacrificed and tumors were harvested and analyzed. (A) Schematic representing the dosing strategy. (B) The fold change of tumor growth over 36 h post initiation of treatment. (C-G) Tumors were enzyme-digested to release single cells which were analyzed for their live (7AAD^-) stromal cell composition using flow cytometry (n=5 tumors per group) (C) and CD8^+ T-cells (D). Gating strategy (left panel) and quantitation of CD8^+ T-cell subsets based on CD62L and CD44 expressions (right panel; TCM; T central memory cells, TEM; T effector memory cells, Teff; T effectors cells) (E), and the ability of the tumoral CD8^+ T-cells to secrete IFNγ post ex vivo exposure to PMA/ionomycin treatment (F). […] Scale bar is 100 µm and white arrows indicate infiltrating CD8^+ T-cells. […] Image in panel (A) was created using BioRender. Bar charts show the mean, error bars SD, and the dots show individual data points from individual tumors and mice. Gemc.; gemcitabine. * P<0.05, ** P<0.01, *** P<0.001.
MN-MCA1 sarcoma cells were orthotopically implanted into syngeneic C57Bl/6 mice for tumors. A total of 2.5 x 10^5 cells in 100 μL RPMI were injected subcutaneously into female mice. […] When tumors became palpable, volumes were measured every 2-4 days using digital caliper measurements of the long (L) and short (S) dimensions of the tumor. […]

Q: Which “abundance of CD8^+ T-cells in the TME” value does the source give for `Nc1ccn([C@@H]2O[C@H](CO)[C@@H](O)C2(F)F)c(=O)n1` [gemcitabine] here?
A: increase in the abundance of CD8^+ T-cells
